Reference: ChEMBL document CHEMBL1136754, “Mechanism of action of the diazabicyclononanone-type kappa-agonists” (J Med Chem, 2003)

Assays:
Format in all cases: tissue-based
Mu-type opioid receptor = Mu-type opioid receptor (Rattus norvegicus, UniProt P33535); assay: Binding affinity towards Opioid receptor mu 1 using [3H]naloxone as radioligand in rat brain
[1] = biological target: Delta-type opioid receptor (Rattus norvegicus, UniProt P33533); assay: Binding affinity towards Opioid receptor delta 1 using [3H]CI-DPDPE as radioligand in rat brain
[2] = biological target: Kappa-type opioid receptor (Rattus norvegicus, UniProt P34975); assay: Binding affinity towards KOR (Opioid receptor kappa 1) using [3H]CI977 as radioligand in rat brain
Chain of Kappa-type opioid receptor (P34975 whole entry): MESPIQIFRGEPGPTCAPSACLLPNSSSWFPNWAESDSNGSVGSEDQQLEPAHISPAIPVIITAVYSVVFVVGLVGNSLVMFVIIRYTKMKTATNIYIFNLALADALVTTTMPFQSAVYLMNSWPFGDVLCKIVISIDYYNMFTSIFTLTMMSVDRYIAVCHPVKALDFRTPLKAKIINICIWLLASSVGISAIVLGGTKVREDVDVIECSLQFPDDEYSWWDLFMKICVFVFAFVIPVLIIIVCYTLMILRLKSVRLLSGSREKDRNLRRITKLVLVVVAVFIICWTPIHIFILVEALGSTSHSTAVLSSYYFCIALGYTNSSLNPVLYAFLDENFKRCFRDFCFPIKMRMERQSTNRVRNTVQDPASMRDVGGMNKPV

Chain of Mu-type opioid receptor (P33535 whole entry): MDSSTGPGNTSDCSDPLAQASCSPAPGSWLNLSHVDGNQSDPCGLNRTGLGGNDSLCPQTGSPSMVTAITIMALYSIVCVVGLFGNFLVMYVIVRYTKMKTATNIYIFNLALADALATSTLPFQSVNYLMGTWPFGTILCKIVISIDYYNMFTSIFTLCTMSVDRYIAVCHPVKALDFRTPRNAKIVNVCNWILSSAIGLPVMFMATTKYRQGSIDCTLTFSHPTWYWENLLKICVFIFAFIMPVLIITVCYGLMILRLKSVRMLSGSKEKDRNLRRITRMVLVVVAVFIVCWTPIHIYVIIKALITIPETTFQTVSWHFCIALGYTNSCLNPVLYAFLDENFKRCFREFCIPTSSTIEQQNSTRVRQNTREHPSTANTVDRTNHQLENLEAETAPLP
Chain of Delta-type opioid receptor (P33533 whole entry): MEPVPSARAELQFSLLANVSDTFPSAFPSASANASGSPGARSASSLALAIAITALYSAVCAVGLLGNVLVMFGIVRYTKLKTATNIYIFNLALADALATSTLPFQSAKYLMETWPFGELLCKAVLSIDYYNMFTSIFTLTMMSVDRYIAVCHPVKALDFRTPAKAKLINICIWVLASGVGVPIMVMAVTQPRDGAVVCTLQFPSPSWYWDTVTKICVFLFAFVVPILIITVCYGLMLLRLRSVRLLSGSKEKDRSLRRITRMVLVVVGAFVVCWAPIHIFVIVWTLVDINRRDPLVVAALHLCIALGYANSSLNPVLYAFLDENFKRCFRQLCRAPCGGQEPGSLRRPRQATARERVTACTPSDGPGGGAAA

## CN1CC2C(=O)C(C1)C(c1ccccn1)N(C)C2c1ccccn1 (stereo not drawn)
Mu-type opioid receptor
  Ki: > 1000 nM
[1]
  Ki: > 10 µM
[2]
  Ki: 15 nM
